# Measured values taken from patent US20210267989A1, “Novel Compounds for the Treatment, Alleviation or Prevention of Disorders Associated with Tau Aggregates” (AC Immune SA, priority 2018, published 2021).
# Counter-ions that a name gives are not always drawn.
# Target: T1, recombinant full-length (fl)Tau aggregates (longest isoform of human Tau, 2N4R; 441 amino acids) (Homo sapiens, UniProt P10636)
# T1 construct: 35 μM of recombinant full-length (fl)Tau in PBS were aggregated for 24 hours; made in house; host or cells: bacteria
# T1 sequence (P10636 1-441 isoform P10636-8): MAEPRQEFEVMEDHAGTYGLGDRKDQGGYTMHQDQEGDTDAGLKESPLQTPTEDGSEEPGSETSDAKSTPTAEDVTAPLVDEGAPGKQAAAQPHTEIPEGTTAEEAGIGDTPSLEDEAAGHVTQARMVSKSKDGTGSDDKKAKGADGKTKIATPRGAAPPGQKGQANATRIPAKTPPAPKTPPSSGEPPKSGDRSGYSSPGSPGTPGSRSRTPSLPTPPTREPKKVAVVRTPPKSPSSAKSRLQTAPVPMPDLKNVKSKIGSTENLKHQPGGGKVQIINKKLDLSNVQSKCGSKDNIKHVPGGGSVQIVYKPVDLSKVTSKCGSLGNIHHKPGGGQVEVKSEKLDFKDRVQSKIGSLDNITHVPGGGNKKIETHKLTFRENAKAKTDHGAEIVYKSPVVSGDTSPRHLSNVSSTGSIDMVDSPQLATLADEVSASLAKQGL
# Experiment: Full-length Tau (flTau) disaggregation assay by Thioflavin T (ThT)
# Assay type: biochemical
# Details: ThT fluorescence; 2 μM flTau aggregates, 30 minutes at RT
# Method: Full-Length Tau (flTau) Disaggregation Assay by Thioflavin T (ThT)
# The longest isoform of human Tau (2N4R; 441 amino acids) was expressed in bacteria and purified. For the Tau disaggregation assay by ThT, 35 μM of recombinant full-length (fl)Tau in PBS were aggregated for 24 hours at 37° C. in presence of 50 μM of heparin (Sigma-Aldrich) and 10 mM of DTT (Sigma-Aldrich) under shaking at 750 RPM. Compounds were dissolved in anhydrous dimethyl sulfoxide (DMSO, Sigma-Aldrich) to reach a concentration of 10 mM. flTau aggregates and serial dilutions of compounds were mixed together in PBS (volume 50 μL) to a final concentration of 2 μM of flTau aggregates and from 160 to 0.04 μM of compounds. The mixture was incubated for 30 minutes at room temperature (RT), then 40 μL of this mixture were transferred into a black 384-well plate assay (Perkin-Elmer) and mixed with 10 μL of 100 μM ThT in 250 mM glycine (both from Sigma-Aldrich) in PBS. Fluorescence (relative fluorescence units; RFU) was measured in monoplicate or duplicate on a Tecan reader (excitation: 440 nm; emission: 485 nm). Percentage of flTau disaggregation was then calculated and the half maximal effective concentration (EC50) was determined using GraphPad Prism version 5 (GraphPad Software) assuming a one-binding site fitting model.
row,SMILES,EC50 [µM]
1,c1ccc2c3c([nH]c2c1)CN(c1ccc(N2CC4COCC4C2)nc1)CC3 (stereo not shown) [Example 69 HCl],< 10

# Target: T2, Tau K18 fragment aggregates (amino acids 244 to 372 of human Tau441) (Homo sapiens, UniProt P10636)
# T2 construct: encompassing amino acids 244 to 372 of the longest isoform (2N4R) of human Tau441; host or cells: bacteria
# T2 sequence (P10636 561-689): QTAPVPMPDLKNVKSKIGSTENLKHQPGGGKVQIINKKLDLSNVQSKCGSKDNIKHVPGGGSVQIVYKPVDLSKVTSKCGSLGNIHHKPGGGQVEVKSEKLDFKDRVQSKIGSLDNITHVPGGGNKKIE
# Experiment: Tau K18 disaggregation assay by ThT
# Assay type: biochemical
# Details: ThT fluorescence; 2 μM K18 aggregates, 30 minutes at RT
# Method: Tau K18 Disaggregation Assay by ThT
# The Tau K18 fragment, encompassing amino acids 244 to 372 of the longest isoform (2N4R) of human Tau441, was expressed in bacteria and purified or bought from SignalChem. For the K18 disaggregation assay by ThT, 35 μM of recombinant K18 in PBS were aggregated for 24 hours at 37° C. in presence of 50 μM of heparin (Sigma-Aldrich) and 10 mM of DTT (Sigma-Aldrich) under shaking at 750 RPM. Compounds were dissolved in anhydrous dimethyl sulfoxide (DMSO, Sigma-Aldrich) to reach a concentration of 10 mM. K18 aggregates and serial dilutions of compounds were mixed together in PBS (volume 50 μL) to a final concentration of 2 μM of K18 aggregates and from 160 to 0.04 μM of compounds. The mixture was incubated for 30 minutes at room temperature (RT), then 40 μL of this mixture were transferred into a black 384-well plate assay (Perkin-Elmer) and mixed with 10 μL of 100 μM ThT in 250 mM glycine (both from Sigma-Aldrich) in PBS. Fluorescence (relative fluorescence units; RFU) was measured in monoplicate or duplicate on a Tecan reader (excitation: 440 nm; emission: 485 nm). Percentage of K18 disaggregation was then calculated and half maximal effective concentration (E050) was determined using GraphPad Prism version 5 (GraphPad Software) assuming a one-binding site fitting model.
row,SMILES,EC50 [µM]
1,c1ccc2c3c([nH]c2c1)CN(c1ccc(N2C[C@@H]4C[C@H]2CO4)nc1)CC3 [Example 86],< 10
2,Fc1ccc2[nH]c3c(c2c1)CCN(c1ccc2nc(N4CCOCC4)ccc2c1)C3 [Example 122],< 10
3,Fc1cccc2c3c([nH]c12)CN(c1ccc(N2CCOCC2)nc1)CC3 [Example 92],< 10
4,Cn1c2c(c3ccccc31)CCN(c1ccc(C#N)nc1)C2 [Example 112],< 10
5,Fc1ccc2[nH]c3c(c2c1)CCN(c1ccc2nc(N4CCOCC4)sc2n1)C3 [Example 54],< 10
6,Cn1c2c(c3ccccc31)CCN(c1ccc3oc(N4CCOCC4)nc3c1)C2 [Example 100],< 10
7,Fc1ccc2c3c([nH]c2c1)CN(c1ccc2oc(N4CCOCC4)nc2c1)CC3 [Example 103],< 10
8,c1ccc2c3c([nH]c2c1)CN(c1ccc2sc(N4CCOCC4)nc2c1)CC3 [Example 37],10 to 25
9,c1ccc2c3c([nH]c2c1)CN(c1ccc2oc(N4CCOCC4)nc2c1)CC3 [Example 99],< 10
10,C[C@@H]1CN(c2ccc(N3CCc4c([nH]c5ccccc45)C3)nn2)CCO1 [Example 119],< 10
11,COc1ccc2[nH]c3c(c2c1)CCN(c1ccc2nc(N(C)C)sc2c1)C3 [Example 35],< 10
12,Fc1ccc2[nH]c3c(c2c1)CCN(c1ccc(N2CCOCC2)cn1)C3 [Example 41],< 10
13,CN(C)c1nc2cc(N3CCc4c([nH]c5ccc(F)cc45)C3)ccc2s1 [Example 42],< 10
14,CN1CCN(c2cnc(N3CCc4c(n(C)c5ccccc45)C3)cn2)CC1 [Example 94],10 to 25
15,Fc1cccc2[nH]c3c(c12)CCN(c1ccc(N2CCOCC2)cn1)C3 [Example 88],< 10
16,c1ccc2c3c([nH]c2c1)CN(c1ccc(N2C4COCC2C4)nc1)CC3 [Example 70],< 10
17,CN(C)c1nc2cc(N3CCc4c([nH]c5ccc(F)cc45)C3)ccc2o1 [Example 28],< 10
18,C[C@@H]1CN(c2ccc(N3CCc4c([nH]c5ccccc45)C3)cn2)C[C@H](C)O1 [Example 76],< 10
19,COc1ccc2[nH]c3c(c2c1)CCN(c1ccc2nc(N4CCOCC4)oc2c1)C3 [Example 32],< 10
20,CN1CCN(c2nc3cc(N4CCc5c(n(C)c6ccccc56)C4)ccc3o2)CC1 [Example 97],10 to 25

row,SMILES,EC50 [µM]
1,COC1CCN(c2ccc(N3CCc4c([nH]c5ccccc45)C3)nn2)CC1 [Example 117],< 10
2,Fc1ccc2[nH]c3c(c2c1)CCN(c1ccc(N2CCOCC2)nc1)C3 [Example 40],< 10
3,c1ccc2c3c([nH]c2c1)CN(c1ccc(N2CCOCC2)cc1)CC3 [Example 59],< 10
4,C[C@@H]1COCCN1c1ccc(N2CCc3c([nH]c4ccccc34)C2)cn1 [Example 78],< 10
5,C[C@@H]1CN(c2ccc(N3CCc4c([nH]c5ccccc45)C3)nn2)C[C@H](C)O1 [Example 120],< 10
6,Fc1ccc2[nH]c3c(c2c1)CCN(c1ccc2ccc(N4CCOCC4)nc2c1)C3 [Example 121],10 to 25
7,Cn1c2c(c3c(F)cccc31)CCN(c1ccc3oc(N4CCOCC4)nc3c1)C2 [Example 90],< 10
8,Fc1ccc2[nH]c3c(c2c1)CCN(c1cc2sc(N4CCOCC4)nc2cn1)C3 [Example 49],< 10
9,CN(C)c1nc2ccc(N3CCc4c([nH]c5ccc(F)cc45)C3)cc2o1 [Example 27],< 10
10,Fc1ccc2[nH]c3c(c2c1)CCN(c1ccc(N2CCOCC2)cc1)C3 [Example 55],< 10
11,Fc1ccc2c3c([nH]c2c1)CN(c1ccc(N2CCOCC2)cc1)CC3 [Example 57],< 10
12,Fc1cccc2[nH]c3c(c12)CCN(c1ccc(N2CCOCC2)nc1)C3 [Example 87],< 10
13,COc1ccc2[nH]c3c(c2c1)CCN(c1ccc2oc(N4CCOCC4)nc2c1)C3 [Example 33],10 to 25
14,Cn1c2c(c3ccccc31)CCN(c1nc3ccc(N4CCOCC4)cc3o1)C2 [Example 67],< 10
15,Fc1ccc2[nH]c3c(c2c1)CCN(c1ccc2sc(N4CCOCC4)nc2c1)C3 [Example 22],< 10
16,Fc1ccc2c3c([nH]c2c1)CN(c1ccc(N2CCOCC2)c(F)c1)CC3 [Example 52],< 10
17,c1ccc2c3c([nH]c2c1)CN(c1ccc(N2CCOC4(CCC4)C2)nc1)CC3 [Example 77],< 10
18,Fc1ccc2[nH]c3c(c2c1)CCN(c1cnc(N2CCOCC2)c(F)c1)C3 [Example 48],< 10
19,Fc1ccc2[nH]c3c(c2c1)CCN(c1ccc2nc(N4CCOCC4)sc2c1)C3 [Example 23],< 10
20,N#Cc1ccc(N2CCc3c([nH]c4ccccc34)C2)cn1 [Example 113],< 10

# Results, then the molecule that gave them:
row,EC50 [µM],SMILES
1,< 10,Fc1ccc2[nH]c3c(c2c1)CCN(c1ccc(N2CCOCC2)cc1F)C3 [Example 56]
2,25 to 50,CN1CCN(c2nc3cc(N4CCc5c([nH]c6ccccc56)C4)ccc3o2)CC1 [Example 98]
3,< 10,Cn1c2c(c3ccccc31)CCN(c1ccc(N3CCOCC3)nn1)C2 [Example 96]
4,25 to 50,CN1CCN(c2ccc(N3CCc4c(n(C)c5ccccc45)C3)cn2)CC1 [Example 95]
5,< 10,Cn1c2c(c3ccccc31)CCN(c1nc3cc(N4CCOCC4)ccc3o1)C2 [Example 101]
6,< 10,c1ccc2c3c([nH]c2c1)CN(c1ccc(N2CCOCC2)nn1)CC3 [Example 68]
7,< 10,Fc1ccc2[nH]c3c(c2c1)CCN(c1ccc2nc(N4CCOCC4)oc2c1)C3 [Example 24]
8,< 10,COc1ccc2[nH]c3c(c2c1)CCN(c1ccc2sc(N(C)C)nc2c1)C3 [Example 34]
9,< 10,COc1ccc2[nH]c3c(c2c1)CCN(c1ccc2sc(N4CCOCC4)nc2c1)C3 [Example 30]
10,< 10,Fc1ccc2[nH]c3c(c2c1)CCN(c1ccc2oc(N4CCOCC4)nc2c1)C3 [Example 25]
11,< 10,COc1ccc2[nH]c3c(c2c1)CCN(c1ccc2nc(N(C)C)oc2c1)C3 [Example 36]
12,< 10,Cn1c2c(c3cccc(F)c31)CCN(c1ccc3oc(N4CCOCC4)nc3c1)C2 [Example 91]
13,< 10,COc1ccc2[nH]c3c(c2c1)CCN(c1ccc2nc(N4CCOCC4)sc2c1)C3 [Example 31]
14,10 to 25,Fc1ccc2c3c([nH]c2c1)CN(c1cnc(N2CCOCC2)c(F)c1)CC3 [Example 51]
15,10 to 25,Fc1ccc2[nH]c3c(c2c1)CCN(c1cncc(N2CCOCC2)c1)C3 [Example 50]
16,< 10,Fc1cc(N2CCc3c([nH]c4ccccc34)C2)ccc1N1CCOCC1 [Example 58]
17,< 10,C[C@H]1CN(c2ccc(N3CCc4c([nH]c5ccccc45)C3)nn2)CCO1 [Example 118]
18,< 10,Fc1ccc2[nH]c3c(c2c1)CCN(c1cnc2nc(N4CCOCC4)sc2c1)C3 [Example 53]
19,< 10,COc1ccc2[nH]c3c(c2c1)CCN(c1ccc2oc(N(C)C)nc2c1)C3 [Example 39]
20,< 10,CN(C)c1nc2ccc(N3CCc4c(n(C)c5ccc(F)cc45)C3)cc2s1 [Example 29]
21,< 10,Fc1cccc2c3c([nH]c12)CN(c1ccc2oc(N4CCOCC4)nc2c1)CC3 [Example 93]
22,< 10,Fc1cccc2[nH]c3c(c12)CCN(c1ccc2oc(N4CCOCC4)nc2c1)C3 [Example 89]
23,10 to 25,CN1CCN(c2ccc(N3CCc4c([nH]c5cc(F)ccc45)C3)cc2)CC1 [Example 62]
24,< 10,CN(C)c1nc2ccc(N3CCc4c([nH]c5ccc(F)cc45)C3)cc2s1 [Example 26]
25,< 10,c1ccc2c3c([nH]c2c1)CN(c1nc2ccc(N4CCOCC4)cc2o1)CC3 [Example 102]
26,< 10,COc1ccc2c(c1)c1c(n2C)CN(c2ccc3nc(N4CCOCC4)oc3c2)CC1 [Example 20]
